Earlier results, collected in patent US20090018107A1, “NOVEL COMPOSITION TO INCREASE MUSCLE STRENGTH” (ORAL DELIVERY TECHNOLOGY LTD., priority 2007, published 2009).

How the values were obtained:
[1] = U.S. Pat. No. 5,880,117
[2] = U.S. Pat. No. 6,989,378

SMILES	Period of decline after the peak [1] [h]	Time to peak concentration after administration [1] [min]	Solubility in oily media [2]
C[C@]12CC[C@H]3[C@@H](CCC4=C[C@@H](O)CC[C@@]43C)[C@@H]1CC[C@@H]2O [4-androstene-3β,17β-diol]	3 to 4	≤ 90	–
CCCCCCCCCCC(=O)O[C@H]1CC[C@H]2[C@H]3[C@H](CC[C@]12C)[C@H]1CCC(=O)C=C1C[C@H]3C [MENT undecanoate, (7α,17β)-7-methyl-17-[(1-ox-oundecyl)oxy]estr-4-en-3one]	–	–	good solubility
